Data: article PMC6856721, “Discovery of a Novel DNA Gyrase-Targeting Antibiotic through the Chemical Perturbation of Streptomyces venezuelae Sporulation” (Cell Chemical Biology, 2019)
In brackets after ≈: the same amount, converted by molar mass. Several values for one entry are separate records, joined by “and”; a condition that tells them apart may be missing. Equal values may be shown once. Read-outs that look alike come from different tables or passages of the source.

Experiments:
[1] = tested on: S. venezuelae; assay: S. venezuelae sporulation inhibition disk diffusion assay (whi phenotype, SEM); assay type: cell-based, Streptomyces venezuelae; settings: for Sporulation inhibition: disk with 10 μL antibiotic, 48 h, white halo in sub-MIC region; for Aerial hyphae septation by SEM: lawn immediately adjacent to the zone of inhibition
Procedure: A lawn of S. venezuelae spores was plated on MYM agar plates and allowed to dry. For the initial screen, 2 μL of each molecule at 2.5 mM was spotted directly to the agar plate. For known antibiotics or follow-up screening, 10 μL of molecule was added to a drug disk, allowed to dry, and placed on the agar plate. The S. venezuelae plate was incubated at 30°C for 48 hours and photographed. The whi phenotype was identified by eye. Hits were selected based on their ability to induce a whi phenotype at sub-inhibitory concentrations and scored by eye on the size of the induced whi region and the zone of inhibition.
To prepare samples for SEM, the agar plate containing a lawn of S. venezuelae was cut at the edge of the zone of inhibition and fixed with 2% glutaraldehyde in 0.1% sodium cacodylate buffer followed by sputter coating with gold. Images were obtained and processed using a FEI XL30 ESEM. The contrast of the resulting images was adjusted to highlight the appearance or lack of spore formation.

[2] = tested on: S. aureus; assay: Minimum inhibitory concentration, broth dilution, S. aureus strains; assay type: cell-based, Staphylococcus aureus
Procedure: (§1) The minimum inhibitory concentration (MIC) defines the lowest concentration of a compound required to inhibit the growth. A single colony of the bacteria being tested was grown in 5 mL of liquid growth media. Following overnight growth, the culture was diluted 100-fold into fresh media and incubated at 37°C until the cells reached mid-log phase (OD600 of 0.3 to 0.5). The cells were diluted 10,000-fold into fresh media and the MIC determined for each of the strains by adding 2 μL of the diluted compound to 198 μL of the diluted cells in a clear 96-well plate. The plates were incubated at 37°C overnight and the optical density at 600 nm was measured for each well. All MIC assays were performed in triplicate.

[3] = biological target: T1, S. aureus gyrase (Staphylococcus aureus, UniProt P0A0K8+P20831); assay: S. aureus gyrase relaxation; assay type: biochemical; settings: ATP-independent
T1 construct: purchased Inspiralis Inc. SAS4001 (supercoiling kit); SAGC001 (cleavage assay kit)
Procedure: 1 U of gyrase was incubated with 0.5 μg of supercoiled pBR322 DNA in a 30 μL reaction at 37°C for 60 minutes under the following conditions: 50 mM Tris.HCl (pH 7.5), 5 mM MgCl2,5 mM DTT, 350 mM potassium glutamate, and 0.05 mg/mL albumin. Each reaction was stopped by the addition of 30 μL chloroform/iso-amyl alcohol (24:1) and 20 μl Stop Dye, before being loaded on a 1.0% TAE agarose gel. Gels run at 80 V for 2 hours.

[4] = biological target: T2, S. aureus gyrase GyrA S84L (Staphylococcus aureus, UniProt P0A0K8+P20831, S84L); assay: Supercoiling inhibition of S. aureus gyrase mutant GyrA S84L; assay type: biochemical; settings: for Susceptibility of gyrase mutant GyrA S84L: S. aureus gyrase
T2 construct: purchased Inspiralis Inc. SAAS84L01
Procedure: (§2) 1 U of DNA gyrase was incubated with 0.5 μg of relaxed pBR322 DNA in a 30 μl reaction at 37°C for 30 minutes under the following conditions: 35 mM Tris.HCl (pH 7.5), 24 mM KCl, 4 mM MgCl2, 2 mM DTT, 1.8 mM Spermidine, 1 mM ATP, 6.5% (w/v) glycerol and 0.1 mg/mL BSA. Each reaction was stopped by the addition of 30 μl chloroform/iso-amyl alcohol (24:1) and 20 μl Stop Dye (40% sucrose, 100 mM Tris.HCl (pH 7.5), 10 mM EDTA, 0.5 μg/mL bromophenol blue), before being loaded on a 1.0% TAE (Tris.acetate […], EDTA […]) agarose gel. Gels run at 90 V for 2 hours. Bands were visualized by ethidium staining for 20 minutes and destaining in water for 20 minutes. Gels were scanned using a gel documentation system (GeneGenius, Syngene, Cambridge, UK) and percent inhibition levels obtained with gel scanning software (GeneTools, Syngene, Cambridge,UK).
(§3) As for E. coli gyrase except assay conditions were: 40 mM HEPES. KOH (pH 7.6), 10 mM magnesium acetate, 10 mM DTT, 2 mM ATP, 500 mM potassium glutamate, and 0.05 mg/mL BSA. Gels run at 80 V for 3 hours.

[5] = tested on: E. coli; assay: Minimum inhibitory concentration, broth dilution, E. coli strains; assay type: cell-based, Escherichia coli
Procedure: as §1

[6] = biological target: T1, S. aureus gyrase; assay: S. aureus gyrase supercoiling; assay type: biochemical; settings: purified S. aureus gyrase, wild-type
Procedure: as §2, §3

[7] = biological target: T3, S. aureus topoisomerase IV (Staphylococcus aureus, UniProt P0C1S7+P0C1U9); assay: S. aureus topoisomerase IV decatenation; assay type: biochemical; settings: purified S. aureus topoisomerase IV; no activity up to; read-out: IC50, topoisomerase IV-catalyzed decatenation
T3 construct: purchased Inspiralis Inc. SAD4001
Procedure: 1 U of topoisomerase IV was incubated with 200 ng kDNA DNA in a 30 μl reaction at 37 C for 30 minutes under the following conditions: 50 mM HEPES-KOH (pH 7.6), 100 mM potassium glutamate, 10 mM magnesium acetate, 10 mM dithiothreitol, 1 mM ATP and 50 μg/mL BSA. Each reaction was stopped by the addition of 30 μl chloroform/iso-amyl alcohol (24:1) and 20 μl Stop Dye, before being loaded on a 1.0% TAE agarose gel. Gels run at 90 V for 2 hours.
As for E coli topoisomerase IV except assay conditions were: 50 mM Tris-HCl (7.5), 5 mM MgCl2, 5 mM DTT, 1.5 mM ATP, 350 mM potassium glutamate and 0.05 mg/mL BSA. Gels run at 80 V for 2 hours.

[8] = biological target: T1, S. aureus gyrase; assay: S. aureus gyrase cleavage; assay type: biochemical
Procedure: 1 U of gyrase was incubated with 0.5 μg of supercoiled pBR322 DNA in a 30 μL reaction at 37 C for 30 minutes under the following conditions: 40 mM HEPES. KOH (pH 7.6), 10 mM magnesium acetate, 10 mM DTT, 100 mM potassium glutamate and 0.05 mg/mL albumin. 0.2 % SDS and 0.1 mg/mL Proteinase K were added before a further incubation at 37°C for 30 minutes. Each reaction was stopped by the addition of 30 μL chloroform/iso-amyl alcohol (24:1) and 20 μL Stop Dye, before being loaded on a 1.0% TAE agarose gel. Gels run at 80 V for 2 hours.

[9] = tested on: HEK293 cells; assay: Toxicity against human HEK293 cells; assay type: cell-based
Excerpt: The experimental model that we have employed is Staphyloccocus aureus strain ATCC 29213. We have used the cell line HEK293, as a control for EN-7 toxicity against human cells.

[10] = biological target: T4, E. coli gyrase (Escherichia coli, UniProt P0AES4+P0AES6); assay: E. coli gyrase supercoiling; assay type: biochemical; settings: purified E. coli gyrase
T4 construct: purchased Inspiralis Inc. K0001
Procedure: as §2

[11] = Staphylococcus aureus, ATCC29213, S. aureus parent strain (ATCC 29213), read-out: MIC
[12] = Staphylococcus aureus, EN-7-resistant S. aureus mutants
[13] = Staphylococcus aureus, ATCC29213, S. aureus ATCC 29213 (wild-type, parent strain), read-out: MIC

For `O=C(O)c1cn(C2CC2)c2cc(N3CCNCC3)c(F)cc2c1=O` [ciprofloxacin, reference compound], the Sporulation inhibition [1] was “+”, the “Aerial hyphae septation by SEM” value [1] was “do not show any aerial hyphae septation” and the MIC [2, 11] was 0.2 µg/mL. It also gave an MIC [2, 12] of 0.2 µg/mL.
In the case of `COc1c(N2C[C@@H]3CCCN[C@@H]3C2)c(F)cc2c(=O)c(C(=O)O)cn(C3CC3)c12` [moxifloxacin, reference compound], the “Inhibition of gyrase-induced DNA relaxation” value [3] is reported as “inhibit” and the “Susceptibility of gyrase mutant GyrA S84L” value [4] is reported as “less susceptible”.
`CO[C@@H]1[C@@H](OC(N)=O)[C@@H](O)[C@H](Oc2ccc3c(O)c(NC(=O)c4ccc(O)c(CC=C(C)C)c4)c(=O)oc3c2C)OC1(C)C` [novobiocin, reference compound] was tested, and the Sporulation inhibition [1] was “+”, the MIC [2, 11] was 0.06 µg/mL and the MIC [2, 12] was 0.06 µg/mL.
Work on `O=C(/C=C/c1cccc2cccnc12)NNC(=O)c1cc(-c2ccccc2)on1` [EN-7] yielded an MIC ([5]; E. coli BW25113, read-out: MIC) greater than 64 µM, an MIC ([5]; E. coli MC1061, read-out: MIC) greater than 64 µM and an MIC ([5]; Escherichia coli, BW25113, E. coli BW25113, read-out: MIC) greater than 64 µM. The MIC ([5]; Escherichia coli, BW25113, E. coli BW25113 ΔtolC ΔbamB, outer-membrane and efflux-deficient) was 1 µM (≈ 0.384 µg/mL), the MIC ([5]; Escherichia coli, E. coli MC1061, read-out: MIC) was greater than 64 µM and the IC50 [6] was 85 nM. For the same compound, the “Growth inhibition (zone of inhibition)” value ([1]; filter disk, 10 μL of 2.5 mM) was “significant zone of inhibition”, the “Sporulation inhibition below the MIC for growth” value ([1]; filter disk, 10 μL of 2.5 mM) was “striking band of inhibited sporulation” and the “Inhibition of gyrase-induced DNA relaxation” value [3] was “inhibit”. For the same compound, the IC50 ([3]; read-out: IC50, gyrase-induced relaxation) was 100 to 500 nM, the IC50 [7] was greater than 100000 nM and the “Occurrence of DNA nicking” value ([8]; S. aureus gyrase, pBR322) was “does increase the occurrence of DNA nicking”. For the same compound, the “Stabilization of gyrase-DNA double-stranded cleavage complex” value ([8]; S. aureus gyrase, pBR322) was “does not stabilize”, the “Effect on ciprofloxacin-induced formation of the double-stranded cleavage complex” value ([8]; co-treatment with ciprofloxacin) was “does not prevent” and the “Toxicity to human HEK293 cells” value [9] was “no toxicity”. For the same compound, the IC50 [10] was 1750 nM, the IC50 [4] was 9960 nM and the “Increase of IC50 relative to the wild-type enzyme” value ([4]; GyrA S84L vs wild-type S. aureus gyrase, supercoiling inhibition) was > 100 fold and ~100 fold. The “Susceptibility of gyrase mutant GyrA S84L” value [4] was “less susceptible”, the MIC ([2]; S. aureus clinical strain C0018, read-out: MIC) was greater than 128 µM and the MIC ([2]; S. aureus clinical strain C0032, read-out: MIC) was greater than 128 µM. The MIC ([2]; S. aureus clinical strain C0117, read-out: MIC) was greater than 128 µM, the MIC [2, 13] was 1 µM and the MIC ([2]; Staphylococcus aureus, ATCC29213, nine EN-7-resistant S. aureus ATCC 29213 mutants (mut-1 to mut-9), 16 μM highest concentration tested) was greater than 16 µM. The MIC ([2]; Staphylococcus aureus, ATCC29213, three S. aureus ATCC 29213 GyrB K417E allelic exchange strains) was greater than 128 µM, the MIC ([2]; Staphylococcus aureus, ATCC 29213 / ATCC 33591, S. aureus three laboratory strains (ATCC 29213, TCH1516, ATCC 33591) and four clinical strains (C0017, C0024, C0023, C0019), read-out: MIC) was 0.4 µg/mL and the MIC ([2]; Staphylococcus aureus, ATCC33519, S. aureus ATCC 33519, read-out: MIC) was 1 µM. It also gave an MIC ([2]; Staphylococcus aureus, S. aureus TCH 1516, read-out: MIC) of 1 µM, an MIC ([2]; Staphylococcus aureus, S. aureus clinical strain C0017, read-out: MIC) of 1 µM and an MIC ([2]; Staphylococcus aureus, S. aureus clinical strain C0018, read-out: MIC) greater than 128 µM. For the same compound, the MIC ([2]; Staphylococcus aureus, S. aureus clinical strain C0019, read-out: MIC) was 1 µM, the MIC ([2]; Staphylococcus aureus, S. aureus clinical strain C0023, read-out: MIC) was 1 µM and the MIC ([2]; Staphylococcus aureus, S. aureus clinical strain C0024, read-out: MIC) was 1 µM. For the same compound, the MIC ([2]; Staphylococcus aureus, S. aureus clinical strain C0032, read-out: MIC) was greater than 128 µM, the MIC ([2]; Staphylococcus aureus, S. aureus clinical strain C0112, read-out: MIC) was 4 µM and the MIC ([2]; Staphylococcus aureus, S. aureus clinical strain C0117, read-out: MIC) was greater than 128 µM.
For `Oc1cc(Cl)ccc1Oc1ccc(Cl)cc1Cl` [Triclosan, triclosan], the Sporulation inhibition [1] was “−”.
With `CN[C@H](CC(C)C)C(=O)N[C@H]1C(=O)N[C@@H](CC(N)=O)C(=O)N[C@H]2C(=O)N[C@H]3C(=O)N[C@H](C(=O)N[C@H](C(=O)O)c4cc(O)cc(O)c4-c4cc3ccc4O)[C@H](O)c3ccc(c(Cl)c3)Oc3cc2cc(c3O[C@@H]2O[C@H](CO)[C@@H](O)[C@H](O)[C@H]2O[C@H]2C[C@](C)(N)[C@H](O)[C@H](C)O2)Oc2ccc(cc2Cl)[C@H]1O` [Vancomycin, vancomycin] the Sporulation inhibition [1] was “−”.
With `CO[C@@]12[C@H](COC(N)=O)C3=C(C(=O)C(C)=C(N)C3=O)N1C[C@@H]1N[C@@H]12` [Mitomycin C, mitomycin C] the Sporulation inhibition [1] was “+” and the “Aerial hyphae septation by SEM” value [1] was “do not show any aerial hyphae septation”.
For bleomycin, the Sporulation inhibition [1] was “+”.
For `CO[C@H]1/C=C/O[C@@]2(C)Oc3c(C)c(O)c4c(O)c(c(/C=N/N5CCN(C)CC5)c(O)c4c3C2=O)NC(=O)/C(C)=C\C=C\[C@H](C)[C@H](O)[C@@H](C)[C@@H](O)[C@@H](C)[C@H](OC(C)=O)[C@@H]1C` [Rifampicin, rifampicin], the Sporulation inhibition [1] was “−” and the “Aerial hyphae septation by SEM” value [1] was “septated aerial hyphae”.
In the case of `O=c1ccc2ncc(=O)n3c2n1C[C@H]3CN1CCC(NCc2cc3c(cn2)OCCC3)CC1` [gepotidacin, reference compound], the MIC [2, 13] is reported as 0.5 µM and the MIC ([2]; Staphylococcus aureus, EN-7-resistant S. aureus strains with GyrB D437N (mut-7, mut-8)) is reported as 32 µM.
`NC[C@H]1O[C@H](O[C@H]2[C@H](O)[C@@H](O[C@H]3O[C@H](CO)[C@@H](O)[C@H](N)[C@H]3O)[C@H](N)C[C@@H]2N)[C@H](O)[C@@H](O)[C@@H]1O` [Kanamycin, kanamycin] was tested, and the Sporulation inhibition [1] was “−” and the “Aerial hyphae septation by SEM” value [1] was “septated aerial hyphae”.
In the case of `N#CC(C#N)=NNc1cccc(Cl)c1` [CCCP, carbonyl cyanide m-chlorophenyl hydrazone], the Sporulation inhibition [1] is reported as “−”.
